Data: US7884093B2, “Progesterone for the treatment or prevention of spontaneous preterm birth” (priority 2007, dated 2011)

Key:
[1] = system: pregnant women with a history of spontaneous preterm birth; assay: Randomized, double-blind, placebo-controlled trial of vaginal progesterone gel on preterm birth; format: in vivo, human
Experimental: In light of the state of the art, a study was conducted to examine the effects of progesterone on preterm labor and premature birth in women with a history of a previous preterm birth. […] The selection, categorization, and breakdown of the two groups is outlined in the flow chart of FIG. 2. The study was a prospective, randomized, placebo-controlled, double-blind, multicenter trial in pregnant subjects at high risk of spontaneous preterm delivery. The study participants were screened from 16 0/7 and 22 6/7 weeks gestational age. Subjects were randomized to drug or placebo from 18 0/7 to 22 6/7 weeks.
(§1) Subjects meeting the study criteria were enrolled by the investigator between 18 0/7 and 22 6/7 weeks and received identically packaged, sequentially numbered progesterone or placebo vaginal gel in a 1:1 ratio. A SAS (SAS Institute Inc., Cary, N.C., USA) procedure for variable block size was used to generate a randomization schedule stratified by study site and by inclusion criteria (prior preterm birth or short cervix). Quintiles, Inc. (Kansas City, Mo., USA) generated the randomization sequences, which were confidentially provided to the packaging company. Treatment allocation was concealed by an identical packaging and labelling process performed by Aptuit, Inc. (Mount Laurel, N.J., USA). The study patients, obstetric care providers, study investigators, study coordinators, and study monitors were blind to the exposure status (progesterone or placebo) of all study patients.
Subjects were randomized in a 1:1 ratio to receive PROCHIEVE® 8% (vaginally administered 90 mg natural progesterone gel) or placebo vaginal gel. All women performed self-dosing on a daily basis of their assigned study medication, either PROCHEIVE® (progesterone) or placebo.
Statistical analysis was based on the intent-to-treat principle.
Patients who were currently or previously enrolled in another investigational study within 1 month prior to screening for the present study were not included in the trial. Patients were also restricted from participation in the trial if the present pregnancy was complicated by a major fetal anomaly or a known chromosome disorder, or was a multifetal gestation. Patients with a cervical cerclage in place, or those intending to have one placed during the current pregnancy, were excluded from study participation, as were those with signs of preterm rupture of membranes, vaginal bleeding, amnionitis, or preterm labor at enrollment.
The study drug was packaged and labelled according to the 1:1 randomization scheme provided by Quintiles, Inc (Kansas City, Mo., USA). A SAS (SAS Institute Inc., Cary, N.C., USA) procedure for variable block size was used to generate the randomization schedule stratified by study site. […] The study drug (Prochieve® 8% progesterone gel) and placebo (Replens®) were provided by Columbia Laboratories, Inc. (Livingston, N.J., USA). Patients were instructed to self-administer the full applicator of vaginal gel at approximately the same time daily, preferably in the morning. Patients received a 2-week supply of the allocated treatment at the time of randomization, and at every 2-week study visit thereafter. All drug supplies were to be brought in at each visit at all study centers, and compliance with the study medication was determined from returned empty wrappers and unused wrappers. Percent compliance was assessed as total treatment duration compliance: (total applicators used/total dosing days)×100. Total dosing days was defined as the interval from enrollment to either the date of preterm premature rupture of membranes, the date of preterm birth without accompanying ruptured membranes, or 37 0/7 weeks' gestation.
The occurrence of adverse events was queried at each 2-week study visit at all centers by asking if the patient had any complaints or problems. Subjects received an extra 1-week drug supply when treatment was initiated in case they could not make the next regularly scheduled appointment.

[2] = system: pregnant women with a short cervix; assay: Randomized trial, analysis of women with a shortened cervix in the midtrimester; format: in vivo, human
Experimental: The study further included women without a history of preterm birth and having a short cervix at the time of enrollment. […] The lowest quartile (≦3.2 cm) was combined with the short cervix only patients and subdivided sequentially and the primary and secondary outcomes for women with cervical lengths of ≦3.0 cm and <2.8 cm at the time of enrollment were analyzed. There were an insufficient number of patients with even shorter cervical lengths available for further analysis. For the purposes of the study, the criteria for short cervix was set at less than 2.8 cm.
The study included women with a documented history of spontaneous preterm birth (<35 weeks) in a singleton pregnancy in the immediate preceding parity regardless of cervical length, and women without a history of preterm birth but with midtrimester cervical shortening (≦2.5 cm) in the current pregnancy were offered enrollment in the study at 18 0/7-22 6/7 weeks of gestation. Recruitment began in April 2004 and the last patient delivered Jan. 8, 2007.
Therefore, women were excluded if any of the following conditions were present: age <18 or >45 years; multifetal gestation; history of an adverse reaction to progesterone or any component present in the treatment medication; treatment with progesterone within 4 weeks preceding enrollment; or current treatment for a seizure disorder, psychiatric disorder, or chronic hypertension. […] Patients who were currently or previously enrolled in another investigational study within one month prior to randomization were not included.
Patients were also restricted from participation in the trial if the present pregnancy was complicated by a major fetal anomaly or a known chromosome disorder. Patients with a cervical cerclage in place, or those intending to have one placed during the current pregnancy, were excluded from the study, as were those with signs of preterm rupture of membranes, vaginal bleeding, amnionitis, or preterm labor at enrollment.
as §1, with “Women with a history of spontaneous preterm birth in the preceding pregnancy regardless of cervical length or women without a history of preterm birth but with midtrimester cervical shortening in the current pregnancy were screened by the investigator or study coordinator between 16 0/7 and 22 6/7 weeks of gestation. Prior history of spontaneous preterm birth was confirmed by evaluation of the patient's medical records before enrollment. Gestational age was based on the patient's last menstrual period and correlated with an ultrasound biometry algorithm. Each patient had at least one ultrasound examination before randomization to confirm gestational age and rule out major fetal anomalies, and a transvaginal scan to determine the length of the cervix. Subjects” for “Subjects”
(§2) Following randomization, daily treatment was initiated by the patient and continued until 37 0/7 weeks' gestational age, occurrence of preterm rupture of membranes, or delivery. Each patient was evaluated at 2-week intervals. All subjects had another transvaginal ultrasound to determine cervical length at 28 weeks of gestation.

[3] = system: pregnant women at risk of preterm birth; conditions: cited from earlier work
[4] = system: cervix length of pregnant women; assay: Cervical length by transvaginal ultrasound at baseline and at 28 weeks of gestation; format: in vivo, human; conditions: baseline to 28 weeks gestation, all participants, 6-10 weeks of dosing
Experimental: as §2
Prior to beginning the study, baseline measurements of each of the participant's cervical length were taken and are summarized in FIG. 1. During the study, cervical length measurements were made by ultrasound at both baseline and later at 28 weeks after a period of 6-10 weeks of dosing. The mean cervix length of 3.7 cm was the same for both the treatment and placebo groups, and the range of cervical length for all participants was between 1.1 cm and 7.9 cm. At 28 weeks gestation, each participant's cervix was re-measured and the data was compared to the baseline data, and an unexpected and surprising finding was discovered.

[5] = ITT, history of spontaneous preterm birth
[6] = neonates, history of spontaneous preterm birth
[7] = baseline cervical length ≦3.0 cm, total 58
[8] = cervical length <2.8 cm, versus placebo

## CC(=O)[C@H]1CC[C@H]2[C@@H]3CCC4=CC(=O)CC[C@]4(C)[C@H]3CC[C@]12C [progesterone]
[1]; [5]
  admissions for preterm labor: 25.6%
  head circumference of the neonates: 32.3±3.34 cm
  mean birth weight of the neonates: 2680±710 gm
  mean gestational age at delivery: 36.6 weeks
  rate of preterm birth at <37 0/7 weeks: 41.7%
  rate of preterm birth at ≦28 0/7 weeks: 3.2%
  rate of preterm birth at ≦35 0/7 weeks: 22.7%
  rate of preterm rupture of membranes: 12.0%
  rate of stillbirth/intrauterine fetal demise: 1.6%
[1]; ITT, history of spontaneous preterm birth, 8% progesterone vaginal gel 90 mg once daily
  rate of preterm birth at ≦32 0/7 weeks of gestation (primary outcome): 10.0%
[1]; neonates
  1-minute APGAR score, median: 8
  5-minute APGAR score, median: 9
[1]; [6]
  occurrence of grade 3 or 4 intraventricular haemorrhage: 0.3%
  occurrence of necrotizing enterocolitis: 1.0%
  occurrence of newborn respiratory distress syndrome: 11.0%
  rate of admission to a neonatal intensive care unit: 17.5%
[1]; patients admitted for treatment of preterm labor
  number of days from admission to delivery: 30 days
[1]; versus placebo, in words
  mean gestational age at delivery, infant morbidity or mortality, or other maternal or neonatal outcome measure: no difference
  treatment emergent adverse events: similar
[1]; versus placebo, in words, history of spontaneous preterm birth
  frequency of preterm birth at ≦32 weeks: did not decrease
[1]; versus placebo, in words, history of spontaneous preterm birth, listed as vaginal progesterone gel
  frequency of preterm birth at ≦32 weeks: does not effectively reduce
[2]; baseline cervical length greater than 3.2 cm, versus placebo
  time to delivery (Kaplan-Meier curve): no statistically significant difference
[2]; baseline cervical length less than 2.8 cm, versus placebo
  time to delivery (Kaplan-Meier curve): probability of not delivering over a longer gestation period
[2]; baseline cervical length less than or equal to 3.0 cm, versus placebo
  time to delivery (Kaplan-Meier curve): probability of not delivering over a longer gestation period
[2]; baseline cervical length less than or equal to 3.2 cm, versus placebo
  time to delivery (Kaplan-Meier curve): probability of not delivering over a longer gestation period
[2]; baseline cervical length ≦2.8 cm, total 19
  Births >32 Weeks, Number: 19
[2]; [7]
  Births >32 Weeks, Number: 54
  Births ≦32 Weeks, Number: 4
[2]; cervical length <2.8 cm
  NICU admissions: 15.8%
  fetal/infant deaths: none
  length of NICU stay: 1.1 days
  preterm deliveries at less than or equal to 28 weeks, number: no preterm deliveries
  rate of neonatal respiratory distress syndrome: 5.3%
  total neonatal hospital days: 5.8 days
[2]; cervical length <2.8 cm at enrollment, 19 on progesterone
  rate of preterm birth at ≦32 weeks: 0%
[2]; [8]
  reduction of the number of preterm delivery at less than 35 weeks: about half
  reduction of the number of preterm delivery at less than or equal to 37 weeks: about half
[2]; short cervix only population, no history of preterm birth, 4 patients on progesterone
  delivering ≦32 weeks gestation: 0
[3]; Dodd et al. meta-analysis of randomized trials, versus placebo
  occurrence of perinatal death: no statistically significant difference
[3]; O'Brien et al., high risk women selected by a history of spontaneous preterm birth, prophylactic vaginal gel
  frequency of recurrent preterm birth: does not effectively reduce
[4]
  mean decrease in cervix length: 0.44 cm
